{
  "source": "paper PMC5286520",
  "about": "(Scientific Reports, 2017)",
  "key": {"[1]": {"tested_on": "inotocin R (L. niger)", "test": "IP1 accumulation, CHO cells expressing L. niger inotocin receptor", "assay_type": "cell-based, Lasius niger", "conditions": "10 µM peptide, L. niger INTR", "protocol": "(§1) Chinese Hamster Ovary cells (CHO) were cultured in Ham’s F12 media supplemented with 10% fetal bovine serum (FBS), 1% PenStrep (all from Sigma-Aldrich, Munich, Germany) and grown in a humidified atmosphere of 37 °C, 5% CO2 and passaged on average twice per week. CHO cells were used for expression of inotocin receptor (L. niger, T. castaneum). Cell transfections were carried out with 10 μg of plasmid using Lipofectamine LTX (Life Technologies, Invitrogen, Carlsbad, USA) for invertebrate receptors. For the expression of human OTR, V1aR, V1bR and V2R, HEK293 cells were transfected using jetPRIME (Polyplus Transfections, Illkirch-Graffenstaden, France)[35]. Cells were maintained in DMEM (GE Healthcare Hy Clone™, Logan, USA) supplemented with 10% FBS and 1% PenStrep.\n(§2) Activation of Gq-signalling via the human V1aR, V1bR and OTR, as well as the insect INTR was measured by inositol-1-phosphate (IP1) quantification using an IP1 Tb kit (Cisbio, Codolet, France). Transfected cells were seeded in 96 well-plates, with a cell density of 10^4 cells per well. […] Samples were measured in technical triplicates. […] Activation of Gs-signalling via the human V2R was measured using a luciferase reporter assay. […] For Schild regression analysis, each concentration-ratio (r) was calculated as the agonist EC50 in the presence of a respective concentration of [D-Arg8]-inotocin by the EC50 of the agonist alone."}, "[2]": {"tested_on": "inotocin R (T. castaneum)", "test": "IP1 accumulation, CHO cells expressing T. castaneum inotocin receptor", "assay_type": "cell-based, Tribolium castaneum", "conditions": "10 µM peptide, T. castaneum INTR", "protocol": "as §1, §2"}, "[3]": {"tested_on": "human myometrium", "test": "Ex vivo human myometrial contractility, vasopressin-augmented (0.5 nM)", "conditions": "vasopressin 0.5 nM"}, "[4]": {"biological_target": "V1aR", "design": "method as in earlier work", "conditions": "previous studies, ref [32][43], cited from earlier work"}, "[5]": {"assay_type": "in vitro ADME, human", "protocol": "Serum stability was tested as described previously. Briefly, serum was obtained prepared from human blood (self-donor), allowed to coagulate for 2 h at 23 °C and centrifuged at 12,000 × g for 10 min. Peptides (100 μM) were incubated in serum for 2, 4, 6, 8, 10 and 24 h at 37 °C. To evaluate peptide stability, aliquots ([…]) were analysed via RP-HPLC (UltiMate 3000, Thermo Scientific Dionex, Vienna, Austria) on a C18 column (Phenomenex Kinetex, Aschaffenburg, Germany) with a 3% gradient using 0.1% (v/v) TFA and 90/10/0.1% (v/v/v) acetonitrile/H2O/TFA as eluents. Half-life (t1/2) of peptides was calculated using non-linear regression analysis using Graph Pad Prism.\nSupplementary Fig. 5. Human serum stability of the inotocin D-analogue. [D-Arg 8 ]-inotocin […]\nserum and their stability monitored via HPLC over a time course of 2, 4, 6, 8, 10 and 24 h. Melittin, a haemolytic peptide from the bee venom was used as a positive control f or peptide degradation.\nArea under the curves of samples was determined and correlated to the negative control analyte, which was dissolved in 0.1% TFA; thus they were not subject to degradation and were assumed therefore as 100%. Peptide stability was expressed in percentage of peptide remaining.\n(1 picture or pasted object on this page, not shown here)"}, "[6]": {"conditions": "100 nM, relative to control activity"}},
  "data": [
    {"compound": "1-desamino-8-D-arginine-vasopressin [Desmopressin]", "values": [
      {"measurement": "activation (IP1 formation)", "setting": "[1]", "result": "inactive"},
      {"measurement": "activation (IP1 formation)", "setting": "[2]", "result": "inactive"}
    ]},
    {"compound": "COc1ccc(S(=O)(=O)N2c3ccc(Cl)cc3[C@](O)(c3ccccc3Cl)[C@@H]2C(=O)N2CCC[C@H]2C(N)=O)cc1OC", "note": "[SR49059, relcovaptan]", "values": [
      {"measurement": "reduction of area-under-the-curve (AUC)", "setting": "[3]; [6]", "result": 72.1, "unit": "%"},
      {"measurement": "reduction of contraction amplitude", "setting": "[3]; [6]", "result": 54.8, "unit": "%"},
      {"measurement": "concentration at which decrease in area-under-the-curve became significant", "setting": "[3]; tested 1-100 nM", "result": 30, "unit": "nM"},
      {"measurement": "concentration at which decrease in contraction amplitude became significant", "setting": "[3]; tested 1-100 nM", "result": 30, "unit": "nM"}
    ]},
    {"compound": "[D-Arg8]-vasopressin", "values": [
      {"measurement": "Ki", "setting": "[4]; read-out: binding affinity", "result": 0.781, "unit": "µM"},
      {"measurement": "difference in affinity of peptide pair vasopressin/[D-Arg8]-vasopressin", "setting": "[4]", "result": "~ 200 fold"}
    ]},
    {"compound": "CC[C@H](C)[C@H](NC(=O)CN)C(=O)NCC(=O)N[C@@H](C)C(=O)N[C@H](C(=O)N[C@@H](CC(C)C)C(=O)N[C@@H](CCCCN)C(=O)N[C@H](C(=O)N[C@@H](CC(C)C)C(=O)N[C@H](C(=O)N[C@H](C(=O)NCC(=O)N[C@@H](CC(C)C)C(=O)N1CCC[C@H]1C(=O)N[C@@H](C)C(=O)N[C@@H](CC(C)C)C(=O)N[C@H](C(=O)N[C@@H](CO)C(=O)N[C@@H](Cc1c[nH]c2ccccc12)C(=O)N[C@H](C(=O)N[C@@H](CCCCN)C(=O)N[C@@H](CCCNC(=N)N)C(=O)N[C@@H](CCCCN)C(=O)N[C@@H](CCCNC(=N)N)C(=O)N[C@@H](CCC(N)=O)C(=O)N[C@@H](CCC(N)=O)C(N)=O)[C@@H](C)CC)[C@@H](C)CC)[C@@H](C)O)[C@@H](C)O)C(C)C)C(C)C", "note": "[melittin]", "values": [
      {"measurement": "half-life", "setting": "[5]; human serum, 37 °C, 100 μM peptide, read-out: half-life t½ (converted)", "result": 42, "unit": "min"},
      {"measurement": "degradation in human serum", "setting": "[5]; within 24 h", "result": "fully degraded"}
    ]}
  ]
}
